Values quoted from earlier work, collected in US11202772B2, “Duloxetine sprinkles” (priority 2016, dated 2021).

SMILES: CNCCC(Oc1cccc2ccccc12)c1cccs1 (single isomer, unassigned; (+)) [Duloxetine, (+)-N-methyl-3-(1-naphthalenyloxy)-3-(2-thienyl)propan-1-amine]
- drug in the dosage hydrolyzed to 1-naphthol (pH 1.0): 50%
- drug degrades to 1-naphthol (pH of 2.0, in one hour): 10%
- time for 10% degradation (pH of 4.0): up to 63 hours
